ChEMBL document CHEMBL1201861, “Genomics of Drug Sensitity in Cancer screening data, Wellcome Trust Sanger Institute”

Experiments:
Experiment in all cases: cells
KARPAS-299 = assay type: functional, cell-based; details: Homo sapiens
Description: SANGER: Inhibition of human KARPAS-299 cell growth in a cell viability assay.

MFM-223 = assay type: functional, cell-based, Homo sapiens; details: Homo sapiens, MFM-223
Description: SANGER: Inhibition of human MFM-223 cell growth in a cell viability assay.

J82 = assay type: functional, cell-based; details: Homo sapiens;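 note: growth inhibition of J82 cells, read out with a cell viability assay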
Description: SANGER: Inhibition of human J82 cell growth in a cell viability assay.

ML-2 = assay type: functional, cell-based; details: Homo sapiens;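 note: growth inhibition of ML-2 cells, measured with a cell viability readout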
Description: SANGER: Inhibition of human ML-2 cell growth in a cell viability assay.

MV4-11 = assay type: functional, cell-based, MV-4-11; details: Homo sapiens;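 note: cell viability readout measuring growth inhibition of human MV-4-11 cells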
Description: SANGER: Inhibition of human MV-4-11 cell growth in a cell viability assay.

RS4-11 = assay type: functional, cell-based; details: Homo sapiens;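 note: growth inhibition of RS4-11 cells, read out by a cell viability assay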
Description: SANGER: Inhibition of human RS4-11 cell growth in a cell viability assay.

ChaGo-K-1 = assay type: functional, cell-based; details: Homo sapiens;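 note: growth inhibition of ChaGo-K-1 cells, read out with a cell viability assay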
Description: SANGER: Inhibition of human ChaGo-K-1 cell growth in a cell viability assay.

ACN = assay type: functional, cell-based, Homo sapiens; details: Homo sapiens, ACN;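 note: growth inhibition of the human ACN cell line, read out via cell viability testing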
Description: SANGER: Inhibition of human ACN cell growth in a cell viability assay.

KMOE-2 = assay type: functional, cell-based; details: Homo sapiens;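 note: growth inhibition of human KMOE-2 cells, read out with a cell viability assay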
Description: SANGER: Inhibition of human KMOE-2 cell growth in a cell viability assay.

GAK = assay type: functional, cell-based, Homo sapiens; details: Homo sapiens, GAK;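 note: cell growth inhibition read out by a cell viability assay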
Description: SANGER: Inhibition of human GAK cell growth in a cell viability assay.

LB373-MEL-D = assay type: functional, cell-based, Homo sapiens; details: Homo sapiens, LB373-MEL-D;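 note: growth inhibition of the cell line, read out in a cell viability assay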
Description: SANGER: Inhibition of human LB373-MEL-D cell growth in a cell viability assay.

KGN = assay type: functional, cell-based, Homo sapiens; details: Homo sapiens, KGN;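 note: growth inhibition of KGN cells, read out with a cell viability assay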
Description: SANGER: Inhibition of human KGN cell growth in a cell viability assay.

SCH = assay type: functional, cell-based, Homo sapiens; details: Homo sapiens, SCH;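 note: growth inhibition of human SCH cells, read out in a cell viability assay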
Description: SANGER: Inhibition of human SCH cell growth in a cell viability assay.

KYSE-410 = assay type: functional, cell-based, Homo sapiens; details: Homo sapiens, KYSE-410;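 note: growth inhibition of KYSE-410 cells, measured through a cell viability readout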
Description: SANGER: Inhibition of human KYSE-410 cell growth in a cell viability assay.

NCI-H1648 = assay type: functional, cell-based, Homo sapiens; details: Homo sapiens, NCI-H1648;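 note: cell viability assay measuring inhibition of NCI-H1648 cell growth, from the Sanger screening data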
Description: SANGER: Inhibition of human NCI-H1648 cell growth in a cell viability assay.

P30-OHK = assay type: functional, cell-based; details: Homo sapiens;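 note: growth inhibition of the P30-OHK cell line, read out with a cell viability assay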
Description: SANGER: Inhibition of human P30-OHK cell growth in a cell viability assay.

A-431 = assay type: functional, cell-based, Homo sapiens; details: Homo sapiens, A-431;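 note: growth inhibition of A-431 cells, determined with a cell viability read-out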
Description: SANGER: Inhibition of human A431 cell growth in a cell viability assay.

LCLC-97TM1 = assay type: functional, cell-based, Homo sapiens; details: Homo sapiens, LCLC-97TM1;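 note: cell viability assay measuring growth inhibition of human LCLC-97TM1 cells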
Description: SANGER: Inhibition of human LCLC-97TM1 cell growth in a cell viability assay.

SH-4 = assay type: functional, cell-based, Homo sapiens; details: Homo sapiens, SH-4;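 note: growth inhibition of SH-4 cells, read out with a cell viability assay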
Description: SANGER: Inhibition of human SH-4 cell growth in a cell viability assay.

MMAC-SF = assay type: functional, cell-based, Homo sapiens; details: Homo sapiens, MMAC-SF;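 note: growth inhibition of human MMAC-SF cells, read out with a cell viability assay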
Description: SANGER: Inhibition of human MMAC-SF cell growth in a cell viability assay.

HOS = assay type: functional, cell-based, Homo sapiens; details: Homo sapiens, HOS;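 note: growth inhibition of human HOS cells, read out with a cell viability assay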
Description: SANGER: Inhibition of human HOS cell growth in a cell viability assay.

NCI-H209 = assay type: functional, cell-based; details: Homo sapiens;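 note: growth inhibition of human NCI-H209 cells, measured by a cell viability assay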
Description: SANGER: Inhibition of human NCI-H209 cell growth in a cell viability assay.

NCI-H526 = assay type: functional, cell-based; details: Homo sapiens;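 note: growth inhibition of the human NCI-H526 cell line, measured by a cell viability assay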
Description: SANGER: Inhibition of human NCI-H526 cell growth in a cell viability assay.

TE-10 = assay type: functional, cell-based, Homo sapiens; details: Homo sapiens, TE-10;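 note: growth inhibition of TE-10 cells, measured by a cell viability assay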
Description: SANGER: Inhibition of human TE-10 cell growth in a cell viability assay.

Becker = assay type: functional, cell-based, Homo sapiens; details: Homo sapiens, Becker;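 note: growth inhibition of Becker cells, read out with a cell viability assay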
Description: SANGER: Inhibition of human Becker cell growth in a cell viability assay.

DBTRG-05MG = assay type: functional, cell-based, Homo sapiens; details: Homo sapiens, DBTRG-05MG;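 note: cell viability assay measuring growth inhibition of human DBTRG-05MG cells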
Description: SANGER: Inhibition of human DBTRG-05MG cell growth in a cell viability assay.

DJM-1 = assay type: functional, cell-based, Homo sapiens; details: Homo sapiens, DJM-1;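 note: growth inhibition of human DJM-1 cells, read out by a cell viability assay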
Description: SANGER: Inhibition of human DJM-1 cell growth in a cell viability assay.

MDA-MB-453 = assay type: functional, cell-based, Homo sapiens; details: Homo sapiens, MDA-MB-453
Description: SANGER: Inhibition of human MDA-MB-453 cell growth in a cell viability assay.

LB2241-RCC = assay type: functional, cell-based, Homo sapiens; details: Homo sapiens, LB2241-RCC;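 note: cell viability assay measuring how strongly the cultured human renal carcinoma line is prevented from growing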
Description: SANGER: Inhibition of human LB2241-RCC cell growth in a cell viability assay.

YAPC = assay type: functional, cell-based, Homo sapiens; details: Homo sapiens, YAPC;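 note: growth inhibition of YAPC cells, measured with a cell viability assay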
Description: SANGER: Inhibition of human YAPC cell growth in a cell viability assay.

L-363 = assay type: functional, cell-based; details: Homo sapiens
Description: SANGER: Inhibition of human L-363 cell growth in a cell viability assay.

NCI-H1155 = assay type: functional, cell-based; details: Homo sapiens;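 note: cell growth inhibition measured by a viability assay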
Description: SANGER: Inhibition of human NCI-H1155 cell growth in a cell viability assay.

HuP-T4 = assay type: functional, cell-based, Homo sapiens; details: Homo sapiens, HuP-T4;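 note: cell viability assay measuring how much HuP-T4 cell growth is inhibited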
Description: SANGER: Inhibition of human HuP-T4 cell growth in a cell viability assay.

CAL-62 = assay type: functional, cell-based, Homo sapiens; details: Homo sapiens, CAL-62;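 note: growth inhibition of CAL-62 cells, read out with a cell viability assay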
Description: SANGER: Inhibition of human CAL-62 cell growth in a cell viability assay.

D-247MG = assay type: functional, cell-based, Homo sapiens; details: Homo sapiens, D-247MG
Description: SANGER: Inhibition of human D-247MG cell growth in a cell viability assay.

NCI-H2087 = assay type: functional, cell-based, Homo sapiens; details: Homo sapiens, NCI-H2087;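 note: growth inhibition determined with a cell viability readout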
Description: SANGER: Inhibition of human NCI-H2087 cell growth in a cell viability assay.

KM-H2 = assay type: functional, cell-based; details: Homo sapiens;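 note: growth inhibition of KM-H2 cells, read out by a cell viability assay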
Description: SANGER: Inhibition of human KM-H2 cell growth in a cell viability assay.

GAMG = assay type: functional, cell-based, Homo sapiens; details: Homo sapiens, GAMG;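 note: cell growth inhibition measured by a viability assay in the GAMG human cell line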
Description: SANGER: Inhibition of human GAMG cell growth in a cell viability assay.

LOX IMVI = assay type: functional, cell-based; details: Homo sapiens
Description: SANGER: Inhibition of human LOXIMVI cell growth in a cell viability assay.

A2780 = assay type: functional, cell-based, Homo sapiens; details: Homo sapiens, A2780;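 note: growth inhibition of A2780 cells, read out with a cell viability assay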
Description: SANGER: Inhibition of human A2780 cell growth in a cell viability assay.

JVM-3 = assay type: functional, cell-based; details: Homo sapiens;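 note: growth inhibition of human JVM-3 cells, read out with a cell viability assay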
Description: SANGER: Inhibition of human JVM-3 cell growth in a cell viability assay.

SK-MEL-1 = assay type: functional, cell-based; details: Homo sapiens;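 note: growth inhibition of human SK-MEL-1 cells, read out by a cell viability assay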
Description: SANGER: Inhibition of human SK-MEL-1 cell growth in a cell viability assay.

DK-MG = assay type: functional, cell-based, Homo sapiens; details: Homo sapiens, DK-MG;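 note: growth inhibition of DK-MG cells, read out with a cell viability assay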
Description: SANGER: Inhibition of human DK-MG cell growth in a cell viability assay.

GCT = assay type: functional, cell-based, Homo sapiens; details: Homo sapiens, GCT;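 note: GCT cell line proliferation inhibition, read out with a cell viability assay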
Description: SANGER: Inhibition of human GCT cell growth in a cell viability assay.

HC-1 = assay type: functional, cell-based; details: Homo sapiens;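 note: growth inhibition of HC-1 cells measured by a cell viability assay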
Description: SANGER: Inhibition of human HC-1 cell growth in a cell viability assay.

NB12 = assay type: functional, cell-based, Homo sapiens; details: Homo sapiens, NB12;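 note: growth inhibition of human NB12 cells, read out by a cell viability assay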
Description: SANGER: Inhibition of human NB12 cell growth in a cell viability assay.

BV-173 = assay type: functional, cell-based; details: Homo sapiens
Description: SANGER: Inhibition of human BV-173 cell growth in a cell viability assay.

GB-1 = assay type: functional, cell-based, Homo sapiens; details: Homo sapiens, GB-1;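 note: growth of GB-1 cells judged by a viability assay, IC50 marks the concentration inhibiting growth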
Description: SANGER: Inhibition of human GB-1 cell growth in a cell viability assay.

HCE-4 = assay type: functional, cell-based, Homo sapiens; details: Homo sapiens, HCE-4;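 note: cell viability assay measuring inhibition of growth in the human HCE-4 cell line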
Description: SANGER: Inhibition of human HCE-4 cell growth in a cell viability assay.

CAL-72 = assay type: functional, cell-based, Homo sapiens; details: Homo sapiens, CAL-72;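 note: cell viability assay measuring inhibition of proliferation in the CAL-72 cell line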
Description: SANGER: Inhibition of human CAL-72 cell growth in a cell viability assay.

NCI-H1770 = assay type: functional, cell-based; details: Homo sapiens;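 note: growth inhibition of NCI-H1770 cells determined with a viability readout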
Description: SANGER: Inhibition of human NCI-H1770 cell growth in a cell viability assay.

SF-295 = assay type: functional, cell-based, Homo sapiens; details: Homo sapiens, SF-295; read-out: IC50;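 note: growth inhibition of SF-295 cells, read out with a cell viability assay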
Description: SANGER: Inhibition of human SF295 cell growth in a cell viability assay.

OAW-42 = assay type: functional, cell-based, Homo sapiens; details: Homo sapiens, OAW-42;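 note: growth inhibition of OAW-42 cells, read out with a cell viability assay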
Description: SANGER: Inhibition of human OAW-42 cell growth in a cell viability assay.

SW1417 = assay type: functional, cell-based, Homo sapiens; details: Homo sapiens, SW1417;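 note: growth inhibition of human SW1417 cells, read out with a cell viability assay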
Description: SANGER: Inhibition of human SW1417 cell growth in a cell viability assay.

Compound `COC(=O)CNC(=O)C(=O)OC` has an IC50 (KARPAS-299) of 98 µM, an IC50 (MFM-223) greater than 4000 µM and an IC50 (J82) of 57.6 µM. The IC50 (ML-2) was 178 µM, the IC50 (MV4-11) was 276 µM and the IC50 (RS4-11) was 34.2 µM. The IC50 (ChaGo-K-1) was 1560 µM, the IC50 (ACN) was 128 µM and the IC50 (KMOE-2) was 305 µM. The IC50 (GAK) was 774 µM, the IC50 (LB373-MEL-D) was 710 µM and the IC50 (KGN) was 62.8 µM. The IC50 (SCH) was greater than 4000 µM, the IC50 (KYSE-410) was 20.8 µM and the IC50 (NCI-H1648) was 1670 µM. The IC50 (P30-OHK) was 467 µM, the IC50 (A-431) was 97.5 µM and the IC50 (LCLC-97TM1) was 200 µM. For the same compound, the IC50 (SH-4) was 2420 µM, the IC50 (MMAC-SF) was 881 µM and the IC50 (HOS) was 636 µM. It also gave an IC50 (NCI-H209) of 1130 µM, an IC50 (NCI-H526) of 536 µM and an IC50 (TE-10) of 629 µM. It also gave an IC50 (Becker) of 274 µM, an IC50 (DBTRG-05MG) of 311 µM and an IC50 (DJM-1) of 215 µM. It also gave an IC50 (MDA-MB-453) greater than 4000 µM, an IC50 (LB2241-RCC) of 537 µM and an IC50 (YAPC) greater than 4000 µM. The IC50 (L-363) was 150 µM, the IC50 (NCI-H1155) was 1540 µM and the IC50 (HuP-T4) was 128 µM. It also gave an IC50 (CAL-62) of 1050 µM, an IC50 (D-247MG) of 2410 µM and an IC50 (NCI-H2087) of 108 µM. It also gave an IC50 (KM-H2) greater than 4000 µM, an IC50 (GAMG) of 1380 µM and an IC50 (LOX IMVI) of 344 µM. The IC50 (A2780) was 2030 µM, the IC50 (JVM-3) was greater than 4000 µM and the IC50 (SK-MEL-1) was 2370 µM. The IC50 (DK-MG) was 526 µM, the IC50 (GCT) was greater than 4000 µM and the IC50 (HC-1) was 569 µM. For the same compound, the IC50 (NB12) was 85.4 µM, the IC50 (BV-173) was 234 µM and the IC50 (GB-1) was 94 µM. The IC50 (HCE-4) was 546 µM, the IC50 (CAL-72) was 488 µM and the IC50 (NCI-H1770) was greater than 4000 µM. The IC50 (SF-295) was 344 µM and the IC50 (OAW-42) was 425 µM.
`COc1ccc(-c2ccc3c(N4CCOC[C@@H]4C)nc(N4CCOC[C@@H]4C)nc3n2)cc1CO` [AZD-8055] showed an IC50 (KARPAS-299) greater than 2 µM, an IC50 (MFM-223) of 0.426 µM and an IC50 (J82) greater than 2 µM. The IC50 (ML-2) was 0.585 µM, the IC50 (SW1417) was greater than 2 µM and the IC50 (MV4-11) was 0.103 µM. For the same compound, the IC50 (RS4-11) was 0.759 µM, the IC50 (ChaGo-K-1) was greater than 2 µM and the IC50 (ACN) was 0.943 µM. The IC50 (GAK) was 1.32 µM, the IC50 (KGN) was 0.61 µM and the IC50 (SCH) was 1.03 µM. It also gave an IC50 (KYSE-410) of 1.27 µM, an IC50 (NCI-H1648) of 0.702 µM and an IC50 (P30-OHK) of 0.327 µM. For the same compound, the IC50 (A-431) was 0.831 µM, the IC50 (LCLC-97TM1) was 1.41 µM and the IC50 (SH-4) was 1.08 µM. The IC50 (HOS) was 0.572 µM, the IC50 (NCI-H209) was 0.0545 µM and the IC50 (NCI-H526) was greater than 2 µM. For the same compound, the IC50 (TE-10) was greater than 2 µM, the IC50 (Becker) was 1.52 µM and the IC50 (DBTRG-05MG) was greater than 2 µM. For the same compound, the IC50 (DJM-1) was 1.62 µM, the IC50 (MDA-MB-453) was 1.16 µM and the IC50 (LB2241-RCC) was 0.302 µM. The IC50 (YAPC) was greater than 2 µM, the IC50 (L-363) was 0.39 µM and the IC50 (NCI-H1155) was greater than 2 µM. The IC50 (HuP-T4) was 1.49 µM, the IC50 (CAL-62) was 0.799 µM and the IC50 (D-247MG) was greater than 2 µM. For the same compound, the IC50 (NCI-H2087) was greater than 2 µM, the IC50 (KM-H2) was 1.56 µM and the IC50 (GAMG) was 0.557 µM. For the same compound, the IC50 (LOX IMVI) was 0.551 µM, the IC50 (A2780) was 1.72 µM and the IC50 (JVM-3) was 0.463 µM. For the same compound, the IC50 (SK-MEL-1) was greater than 2 µM, the IC50 (DK-MG) was greater than 2 µM and the IC50 (GCT) was 1.34 µM. For the same compound, the IC50 (NB12) was greater than 2 µM, the IC50 (BV-173) was 0.0906 µM and the IC50 (GB-1) was greater than 2 µM. It also gave an IC50 (HCE-4) greater than 2 µM, an IC50 (CAL-72) greater than 2 µM and an IC50 (NCI-H1770) of 0.802 µM. For the same compound, the IC50 (SF-295) was 0.685 µM and the IC50 (OAW-42) was 0.592 µM.
